Laboratory results reported in patent US11000033B2, “Ketone or oxime compound, and herbicide” (NISSAN CHEMICAL CORPORATION, priority 2014, dated 2021).

Assays:
Assay type in all cases: in vivo
[1] = tested on: Amaranthus retroflexus; experiment: Test Example 5: herbicidal effect by foliage application, plastic box (symbol N); conditions: 320 g/ha, 3 weeks after application
Outline: (§1)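 Seeds were sown in sterilized diluvial soil, covered with about 1.5 cm of soil and grown 14 days in a greenhouse at 25° C. to 30° C. An emulsifiable formulation diluted in water to a set rate was sprayed over foliage, and injury was scored 3 weeks later.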

[2] = tested on: transplanted rice plant; experiment: Test Example 1: effect on crop, application before weed generation in submerged conditions (symbol a); conditions: application herbicide amount 320 g/ha
Outline: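 Alluvial soil pots flooded to 4 cm water, sown with Echinochloa oryzacola, Scirpus juncoides and Monochoria vaginalis, then transplanted with 2.5 leaf stage rice seedlings; pre-emergence application. Greenhouse 25° C. to 30° C.; scored 0–5 by herbicidal ratio 3 weeks after application.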

[3] = tested on: Lolium multiflorum Lam.; experiment: Test Example 5: herbicidal effect by foliage application, plastic box (symbol K); conditions: 320 g/ha, 3 weeks after application
Outline: as §1

[4] = tested on: Monochoria vaginalis; experiment: Test Example 1: herbicidal activity, application before weed generation in submerged conditions (symbol C); conditions: application herbicide amount 320 g/ha
Outline: (§2)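 Compound emulsion was diluted to a set herbicide amount and applied to the water surface on the sowing day, into submerged (4 cm) alluvial-soil pots sown with mixed weed seeds and transplanted 2.5-leaf rice. Pots were held in a 25–30 °C greenhouse, and weeds were scored 0–5 by herbicidal ratio after 3 weeks.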

[5] = tested on: soybean; experiment: Test Example 4: effect on crop by soil treatment (symbol d); conditions: application herbicide amount 320 g/ha
Outline: (§3)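 Grown at 25° C. to 30° C. in a greenhouse, the crops came from seed sown spot-wise in sterilized diluvial soil under roughly 1.5 cm of covering soil.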

[6] = tested on: directly sowed rice plant; experiment: Test Example 3: effect on crop by foliage application, Wagner pot (symbol b); conditions: application herbicide amount 320 g/ha
Outline: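 Alluvial soil in a 1/10000-are Wagner pot was flooded to a water depth of 0.1–0.5 cm. Echinochloa crus-galli var. crus-galli, Leptochloa chinensis, Cyperus difformis and rice were sown into it and grown in a greenhouse at 25–30 °C.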

[7] = tested on: rice plant; experiment: Test Example 5: effect on crop by foliage application, plastic box (symbol b); conditions: 320 g/ha, 3 weeks after application
Outline: (§4)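 Seeds were sown in spots in sterilized diluvial soil held in a plastic box 21 cm × 13 cm × 7 cm deep, covered with about 1.5 cm of soil, and grown in a greenhouse at 25° C. to 30° C.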

[8] = tested on: Digitaria ciliaris; experiment: Test Example 5: herbicidal effect by foliage application, plastic box (symbol F); conditions: 320 g/ha, 3 weeks after application
Outline: as §1

[9] = tested on: corn; experiment: Test Example 5: effect on crop by foliage application, plastic box (symbol c); conditions: 320 g/ha, 3 weeks after application
Outline: as §4

[10] = tested on: Abutilon theophrasti; experiment: Test Example 5: herbicidal effect by foliage application, plastic box (symbol M); conditions: 320 g/ha, 3 weeks after application
Outline: as §1

[11] = tested on: Alopecurus myosuroides; experiment: Test Example 5: herbicidal effect by foliage application, plastic box (symbol J); conditions: 320 g/ha, 3 weeks after application
Outline: as §1

[12] = tested on: rice; experiment: Test Example 4: effect on crop by soil treatment (symbol b); conditions: application herbicide amount 320 g/ha
Outline: as §3

[13] = tested on: Echinochloa crus-galli var. crus-galli; experiment: Test Example 5: herbicidal effect by foliage application, plastic box (symbol H); conditions: 320 g/ha, 3 weeks after application
Outline: as §1

[14] = tested on: Lolium multiflorum Lam.; experiment: Test Example 4: herbicidal effect by soil treatment (symbol K); conditions: application herbicide amount 320 g/ha
Outline: (§5)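 Seeds were sown in sterilized diluvial soil, covered with about 1.5 cm of soil, and the soil surface was sprayed with a water-diluted emulsion of the compound at a predetermined rate. Plants grew in a greenhouse at 25° C. to 30° C.; effects were scored visually 3 weeks after application.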

[15] = tested on: Chenopodium album; experiment: Test Example 4: herbicidal effect by soil treatment (symbol O); conditions: application herbicide amount 320 g/ha
Outline: as §5

[16] = tested on: Echinochloa oryzacola Vasing.; experiment: Test Example 1: herbicidal activity, application before weed generation in submerged conditions (symbol A); conditions: application herbicide amount 320 g/ha
Outline: as §2

| SMILES | N: Amaranthus retroflexus, herbicidal effect (criteria of Test Example 1) [1] | Effect grade on crop, a: transplanted rice plant [2] | K: Lolium multiflorum Lam., herbicidal effect (criteria of Test Example 1) [3] | Herbicidal effect grade, C: Monochoria vaginalis [4] | d: soybean, effect on crop grade [5] | effect on crop b (directly sowed rice plant), grade 0-5 [6] | b: directly sowed rice plant, effect on crop (criteria of Test Example 1) [7] | F: Digitaria ciliaris, herbicidal effect (criteria of Test Example 1) [8] | c: corn, effect on crop (criteria of Test Example 1) [9] | M: Abutilon theophrasti, herbicidal effect (criteria of Test Example 1) [10] | J: Alopecurus myosuroides, herbicidal effect (criteria of Test Example 1) [11] | b: directly sowed rice plant, effect on crop grade [12] | H: Echinochloa crus-galli var. crus-galli, herbicidal effect (criteria of Test Example 1) [13] | K: Lolium multiflorum Lam., herbicidal effect grade [14] | O: Chenopodium album, herbicidal effect grade [15] | Herbicidal effect grade, A: Echinochloa oryzacola Vasing. [16] |
| --- | --- | --- | --- | --- | --- | --- | --- | --- | --- | --- | --- | --- | --- | --- | --- | --- |
| CON=C(C)CC1CC(O)=C(c2c(C)cc(-c3ncccn3)cc2C)C1=O (mixture of isomers) [6-057] | 1 (Herbicidal ratio of 5% or higher and lower than 20%) | 5 (Herbicidal ratio of 90% or more (almost completely withered)) | 5 (Herbicidal ratio of 90% or more (almost completely withered)) | 1 (Herbicidal ratio of 5% or higher and lower than 20%) | 0 (Herbicidal ratio of 5% or lower (almost no effect)) | 5 (Herbicidal ratio of 90% or more (almost completely withered)) | 5 (Herbicidal ratio of 90% or more (almost completely withered)) | 5 (Herbicidal ratio of 90% or more (almost completely withered)) | 5 (Herbicidal ratio of 90% or more (almost completely withered)) | 1 (Herbicidal ratio of 5% or higher and lower than 20%) | 5 (Herbicidal ratio of 90% or more (almost completely withered)) | 5 (Herbicidal ratio of 90% or more (almost completely withered)) | 5 (Herbicidal ratio of 90% or more (almost completely withered)) | 5 (Herbicidal ratio of 90% or more (almost completely withered)) | 0 (Herbicidal ratio of 5% or lower (almost no effect)) | 3 (Herbicidal ratio of 40% or higher and lower than 70%) |
| CON=C(C)CC1CC(OC(=O)N2CCOCC2)=C(c2c(C)cc(-c3ccc(F)cc3)cc2C)C1=O (mixture of isomers) [6-059] | 5 (Herbicidal ratio of 90% or more (almost completely withered)) | 5 (Herbicidal ratio of 90% or more (almost completely withered)) | 5 (Herbicidal ratio of 90% or more (almost completely withered)) | 4 (Herbicidal ratio of 70% or higher and lower than 90%) | 0 (Herbicidal ratio of 5% or lower (almost no effect)) | 5 (Herbicidal ratio of 90% or more (almost completely withered)) | 5 (Herbicidal ratio of 90% or more (almost completely withered)) | 5 (Herbicidal ratio of 90% or more (almost completely withered)) | 5 (Herbicidal ratio of 90% or more (almost completely withered)) | 5 (Herbicidal ratio of 90% or more (almost completely withered)) | 5 (Herbicidal ratio of 90% or more (almost completely withered)) | 0 (Herbicidal ratio of 5% or lower (almost no effect)) | 5 (Herbicidal ratio of 90% or more (almost completely withered)) | 1 (Herbicidal ratio of 5% or higher and lower than 20%) | 0 (Herbicidal ratio of 5% or lower (almost no effect)) | 5 (Herbicidal ratio of 90% or more (almost completely withered)) |
| CON=C(C)CC1CC(OS(=O)(=O)N(C)C)=C(c2c(C)cc(-c3ccc(F)cc3)cc2C)C1=O (mixture of isomers) [6-060] | 4 (Herbicidal ratio of 70% or higher and lower than 90%) | 5 (Herbicidal ratio of 90% or more (almost completely withered)) | 5 (Herbicidal ratio of 90% or more (almost completely withered)) | 5 (Herbicidal ratio of 90% or more (almost completely withered)) | 0 (Herbicidal ratio of 5% or lower (almost no effect)) | 5 (Herbicidal ratio of 90% or more (almost completely withered)) | 5 (Herbicidal ratio of 90% or more (almost completely withered)) | 5 (Herbicidal ratio of 90% or more (almost completely withered)) | 5 (Herbicidal ratio of 90% or more (almost completely withered)) | 5 (Herbicidal ratio of 90% or more (almost completely withered)) | 5 (Herbicidal ratio of 90% or more (almost completely withered)) | 3 (Herbicidal ratio of 40% or higher and lower than 70%) | 5 (Herbicidal ratio of 90% or more (almost completely withered)) | 3 (Herbicidal ratio of 40% or higher and lower than 70%) | 0 (Herbicidal ratio of 5% or lower (almost no effect)) | 5 (Herbicidal ratio of 90% or more (almost completely withered)) |
| CON=C(C)CC1CC(OC(=O)N(C)C)=C(c2c(C)cc(-c3ccc(Cl)cc3)cc2C)C1=O (mixture of isomers) [6-063] | 0 (Herbicidal ratio of 5% or lower (almost no effect)) | 4 (Herbicidal ratio of 70% or higher and lower than 90%) | 5 (Herbicidal ratio of 90% or more (almost completely withered)) | 3 (Herbicidal ratio of 40% or higher and lower than 70%) | 0 (Herbicidal ratio of 5% or lower (almost no effect)) | 5 (Herbicidal ratio of 90% or more (almost completely withered)) | 3 (Herbicidal ratio of 40% or higher and lower than 70%) | 5 (Herbicidal ratio of 90% or more (almost completely withered)) | 5 (Herbicidal ratio of 90% or more (almost completely withered)) | 2 (Herbicidal ratio of 20% or higher and lower than 40%) | 3 (Herbicidal ratio of 40% or higher and lower than 70%) | 0 (Herbicidal ratio of 5% or lower (almost no effect)) | 5 (Herbicidal ratio of 90% or more (almost completely withered)) | 0 (Herbicidal ratio of 5% or lower (almost no effect)) | 0 (Herbicidal ratio of 5% or lower (almost no effect)) | 5 (Herbicidal ratio of 90% or more (almost completely withered)) |
